Source: patent publication US10800791B2, “Triazole ACC inhibitors and uses thereof” (Gilead Apollo, LLC, priority 2015, dated 2020)
Converted amounts (≈) assume the structure as drawn. Read-outs that look alike come from different tables or passages of the source.

Columns and labels:
Botrtyis cinerea (Bc) = assay: Growth inhibition assay of fungal pathogens, Bc; assay type: cell-based; details: 48 h, Botrtyis cinerea, read-out: Concentration at 90% Inhibition Bc
Summary of the method: (§1)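 Percent inhibition derived at 48 hours from OD600 and visual scores versus 2% DMSO control, with media+DMSO blank as background. Spore inocula in 17% V8 medium were sized from 48 h growth curves; compounds tested at final 50/10/2 or 2/0.4/0.08 ppm.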

[1] = system: Fusarium virguliforme (Fv); assay: Growth inhibition assay of fungal pathogens, Fv; assay type: cell-based; details: 48 h, read-out: Concentration at 90% Inhibition Fv
Summary of the method: as §1

C. parapsilosis = assay: Antifungal Activity Assay (broth microtiter MIC), C. parapsilosis; assay type: cell-based, Candida parapsilosis; details: Lodderomyces parapsilosis, ATCC22019, 48 h, ATCC 22019, 3 replicates, MIC recorded at 48 h, read-out: MIC, C. parapsilosis ATCC 22019
Summary of the method: (§2)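 Colonies from 24 h Sabouraud dextrose agar plates (35° C) are suspended in RPMI 1640+MOPS and diluted to give 2.5×10^3 CFU/mL in the wells. Plates are set up per CLSI M27-A3. Visual MIC is recorded at 48 h.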

C. albicans = assay: Antifungal Activity Assay (broth microtiter MIC), C. albicans; assay type: cell-based, Candida albicans; details: Candida albicans, ATCC90028, 48 h, ATCC 90028, 3 replicates, MIC recorded at 48 h, read-out: MIC, C. albicans ATCC 90028
Summary of the method: as §2

fungal (fACC2) = fungal (fACC2) (UniProt Q00955); details: read-out: fACC2 (in vitro ACC2 Inhibition Assay, IC50), ADP-Glo, 5 nM ACC2, 20 μM ATP, 20 μM acetyl-CoA
fungal (fACC2), sequence (Q00955 whole entry): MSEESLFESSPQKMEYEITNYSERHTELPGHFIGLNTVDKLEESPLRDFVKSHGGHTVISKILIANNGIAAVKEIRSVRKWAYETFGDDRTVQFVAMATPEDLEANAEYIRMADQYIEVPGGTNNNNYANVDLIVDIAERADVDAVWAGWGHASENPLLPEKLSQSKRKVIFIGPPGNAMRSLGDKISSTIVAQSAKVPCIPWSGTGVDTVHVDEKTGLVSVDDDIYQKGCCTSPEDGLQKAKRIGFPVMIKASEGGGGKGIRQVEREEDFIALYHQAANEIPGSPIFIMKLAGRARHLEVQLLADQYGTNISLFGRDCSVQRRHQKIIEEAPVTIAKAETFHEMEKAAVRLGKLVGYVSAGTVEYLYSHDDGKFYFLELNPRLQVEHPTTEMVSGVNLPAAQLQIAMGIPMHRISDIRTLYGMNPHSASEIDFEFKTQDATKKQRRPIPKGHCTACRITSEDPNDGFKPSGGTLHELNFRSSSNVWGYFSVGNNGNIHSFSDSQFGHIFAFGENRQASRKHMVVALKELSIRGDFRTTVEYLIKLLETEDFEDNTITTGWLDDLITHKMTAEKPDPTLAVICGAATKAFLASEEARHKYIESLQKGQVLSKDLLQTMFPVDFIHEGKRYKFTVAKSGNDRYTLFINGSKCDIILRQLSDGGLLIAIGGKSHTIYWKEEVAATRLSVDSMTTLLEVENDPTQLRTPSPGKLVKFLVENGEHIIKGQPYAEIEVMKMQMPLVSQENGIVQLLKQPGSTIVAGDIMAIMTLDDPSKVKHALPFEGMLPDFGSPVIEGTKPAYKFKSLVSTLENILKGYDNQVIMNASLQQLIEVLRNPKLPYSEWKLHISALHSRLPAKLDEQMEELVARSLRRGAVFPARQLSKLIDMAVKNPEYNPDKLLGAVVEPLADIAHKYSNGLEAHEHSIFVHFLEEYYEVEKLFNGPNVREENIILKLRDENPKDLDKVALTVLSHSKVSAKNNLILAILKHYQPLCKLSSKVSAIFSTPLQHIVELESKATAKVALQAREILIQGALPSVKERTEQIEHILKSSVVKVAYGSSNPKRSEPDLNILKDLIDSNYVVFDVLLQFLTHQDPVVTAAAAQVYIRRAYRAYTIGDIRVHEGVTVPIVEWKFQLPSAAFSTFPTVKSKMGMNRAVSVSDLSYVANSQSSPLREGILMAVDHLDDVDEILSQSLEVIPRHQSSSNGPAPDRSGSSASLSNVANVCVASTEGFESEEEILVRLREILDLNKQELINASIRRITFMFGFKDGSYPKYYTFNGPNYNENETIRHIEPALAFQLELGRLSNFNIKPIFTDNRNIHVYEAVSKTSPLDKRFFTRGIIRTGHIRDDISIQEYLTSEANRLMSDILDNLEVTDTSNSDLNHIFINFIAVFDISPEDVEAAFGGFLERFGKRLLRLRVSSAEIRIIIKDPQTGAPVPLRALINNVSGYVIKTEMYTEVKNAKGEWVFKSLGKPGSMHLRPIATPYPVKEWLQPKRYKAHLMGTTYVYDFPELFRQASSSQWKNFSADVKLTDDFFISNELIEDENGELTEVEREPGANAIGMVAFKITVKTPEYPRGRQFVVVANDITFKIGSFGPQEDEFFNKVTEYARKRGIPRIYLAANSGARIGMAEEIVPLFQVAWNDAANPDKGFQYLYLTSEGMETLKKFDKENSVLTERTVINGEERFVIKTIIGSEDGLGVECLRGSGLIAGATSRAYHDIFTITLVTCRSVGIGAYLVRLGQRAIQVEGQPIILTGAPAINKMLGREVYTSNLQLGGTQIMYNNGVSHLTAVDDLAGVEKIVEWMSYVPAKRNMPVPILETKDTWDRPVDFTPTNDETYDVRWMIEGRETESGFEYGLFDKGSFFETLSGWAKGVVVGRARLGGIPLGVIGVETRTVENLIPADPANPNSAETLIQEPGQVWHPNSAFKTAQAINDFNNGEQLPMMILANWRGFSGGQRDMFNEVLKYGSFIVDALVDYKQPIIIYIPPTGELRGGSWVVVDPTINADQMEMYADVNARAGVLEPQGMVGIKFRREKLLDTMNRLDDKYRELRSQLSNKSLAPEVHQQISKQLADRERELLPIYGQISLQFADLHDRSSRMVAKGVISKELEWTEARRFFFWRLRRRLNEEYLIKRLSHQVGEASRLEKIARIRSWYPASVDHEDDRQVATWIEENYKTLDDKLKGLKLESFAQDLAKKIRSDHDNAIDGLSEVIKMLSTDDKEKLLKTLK

[2] = system: Fusarium moniliforme (Fm); assay: Growth inhibition assay of fungal pathogens, Fm; assay type: cell-based; details: Fusarium verticillioides, 48 h, Fusarium moniliforme, read-out: Concentration at 90% Inhibition Fm
Summary of the method: as §1

C. krusei = assay: Antifungal Activity Assay (broth microtiter MIC), C. krusei; assay type: cell-based, Candida krusei; details: Pichia kudriavzevii, ATCC6258, 48 h, ATCC 6258, 3 replicates, MIC recorded at 48 h, read-out: MIC, C. krusei ATCC 6258
Summary of the method: as §2

[3] = system: Phytophthora capsici (Pc); assay: Growth inhibition assay of fungal pathogens, Pc; assay type: cell-based; details: 48 h, read-out: Concentration at 90% Inhibition Pc
Summary of the method: as §1

[4] = system: Collectotrichum graminicola (Cg); assay: Growth inhibition assay of fungal pathogens, Cg; assay type: cell-based; details: 48 h, Collectotrichum graminicola, read-out: Concentration at 90% Inhibition Cg
Summary of the method: as §1

Diplodia maydis (Dm) = assay: Growth inhibition assay of fungal pathogens, Dm; assay type: cell-based; details: Stenocarpella maydis, 48 h, Diplodia maydis, read-out: Concentration at 90% Inhibition Dm
Summary of the method: as §1

Septoria tritici (St) = assay: Growth inhibition assay of fungal pathogens, St; assay type: cell-based; details: Zymoseptoria tritici, 48 h, Septoria tritici, read-out: Concentration at 90% Inhibition St
Summary of the method: as §1

[5] = growth inhibition at 48 hours vs 2% DMSO control
[6] = growth inhibition vs 2% DMSO control at 48 hours

SMILES | IC90 (Botrtyis cinerea (Bc); [5]) [µg/mL] | IC90 (Botrtyis cinerea (Bc); [6]) [µg/mL] | IC90 [1, 5] [µg/mL] | IC90 [1, 6] [µg/mL] | MIC (C. parapsilosis; Table 3a) [µg/mL] | MIC (C. parapsilosis; Table 3b (additional results)) [µg/mL] | MIC (C. albicans; Table 3a) [µg/mL] | MIC (C. albicans; Table 3b (additional results)) [µg/mL] | IC50 (fungal (fACC2); Table 2a) [nM] | IC50 (fungal (fACC2); Table 2b, additional results) [nM] | IC90 [2, 5] [µg/mL] | IC90 [2, 6] [µg/mL] | MIC (C. krusei; Table 3a) [µg/mL] | MIC (C. krusei; Table 3b (additional results)) [µg/mL] | IC90 [3, 5] [µg/mL] | IC90 [3, 6] [µg/mL] | IC90 [4, 5] [µg/mL] | IC90 [4, 6] [µg/mL] | IC90 (Diplodia maydis (Dm); [5]) [µg/mL] | IC90 (Diplodia maydis (Dm); [6]) [µg/mL] | other results
COc1ccc(F)cc1[C@H](Cn1c(=O)n(C(C)(C)C(=O)N2CC=CC2)c(=O)c2c(C)c(-n3nccn3)sc21)OC1CCOCC1 [Compound I-62, (R)-3-(1-(2,5-dihydro-1H-pyrrol-1-yl)-2-methyl-1-oxopro-pan-2-yl)-1-(2-(5-fluoro-2-methoxyphenyl)-2-((tetrahydro-2H-pyran-4-yl)oxy)ethyl)-5-methyl-6-(2H-1,2,3-triazol-2-yl)thieno[2,3-d]pyrimidine-2,4(1H,3H)-dione] | 2 (≈ 3.13 µM) | 2 (≈ 3.13 µM) | 0.4 (≈ 0.626 µM) | 0.4 (≈ 0.626 µM) | 0.25 to 1 (≈ 0.391 to 1.57 µM) | 1.01 to 2 (≈ 1.58 to 3.13 µM) | 0.25 to 1 (≈ 0.391 to 1.57 µM) | 0.25 to 1 (≈ 0.391 to 1.57 µM) | 1 to 5 | 1 to 5 | 0.08 (≈ 0.125 µM) | 0.08 (≈ 0.125 µM) | 0.25 to 1 (≈ 0.391 to 1.57 µM) | 0.25 to 1 (≈ 0.391 to 1.57 µM) | > 50 | > 50 | 0.4 (≈ 0.626 µM) | 0.4 (≈ 0.626 µM) | 0.4 (≈ 0.626 µM) | 0.4 (≈ 0.626 µM) | IC90 (Septoria tritici (St); [5]): > 50 µg/mL; IC90 (Septoria tritici (St); [6]): > 50 µg/mL
COc1ccc(F)cc1[C@H](Cn1c(=O)n(C(C)(C)C(=O)N2CC=CC2)c(=O)c2c(C)c(-n3nccn3)sc21)OC[C@@H](C)O [Compound I-63, 3-(1-(2,5-dihydro-1H-pyrrol-1-yl)-2-methyl-1-oxopropan-2-yl)-1-((R)-2-(5-fluoro-2-methoxyphenyl)-2-((R)-2-hydroxypropoxy)ethyl)-5-methyl-6-(2H-1,2,3-triazol-2-yl)thieno[2,3-d]pyrimidine-2,4(1H,3H)-dione] | 2 (≈ 3.26 µM) | 2 (≈ 3.26 µM) | 0.4 (≈ 0.653 µM) | 0.4 (≈ 0.653 µM) | 1.1 to 2 (≈ 1.8 to 3.26 µM) | 2.01 to 4 (≈ 3.28 to 6.53 µM) | 0.25 to 1 (≈ 0.408 to 1.63 µM) | 1.01 to 2 (≈ 1.65 to 3.26 µM) | 0.4 to 1 | 0.3 to 1 | 0.08 (≈ 0.131 µM) | 0.08 (≈ 0.131 µM) | 0.25 to 1 (≈ 0.408 to 1.63 µM) | > 4.01 | > 50 | > 50 | 0.4 (≈ 0.653 µM) | 0.4 (≈ 0.653 µM) | 2 (≈ 3.26 µM) | 2 (≈ 3.26 µM) | IC90 (Septoria tritici (St); [5]): > 50 µg/mL; IC90 (Septoria tritici (St); [6]): > 50 µg/mL
COCCO[C@@H](Cn1c(=O)n(C(C)C(=O)N2CCCC2)c(=O)c2c(C)c(-n3nccn3)sc21)c1cc(F)ccc1OC (stereo partly drawn) [Compound I-64, 1-((R)-2-(5-fluoro-2-methoxyphenyl)-2-(2-methoxy-ethoxy)ethyl)-5-methyl-3-(1-oxo-1-(pyrrolidin-1-yl)propan-2-yl)-6-(2H-1,2,3-triazol-2-yl)thieno[2,3-d]pyrimidine-2,4(1H,3H)-dione] | 2 (≈ 3.33 µM) | 2 (≈ 3.33 µM) | 0.4 (≈ 0.666 µM) | 0.4 (≈ 0.666 µM) | 2.1 to 4 (≈ 3.5 to 6.66 µM) | 1.01 to 2 (≈ 1.68 to 3.33 µM) | 2.1 to 4 (≈ 3.5 to 6.66 µM) | 2.01 to 4 (≈ 3.35 to 6.66 µM) | 1 to 5 | 1 to 5 | 0.4 (≈ 0.666 µM) | 0.4 (≈ 0.666 µM) | 2.1 to 4 (≈ 3.5 to 6.66 µM) | 2.01 to 4 (≈ 3.35 to 6.66 µM) | > 50 | > 50 | 10 (≈ 16.6 µM) | > 50 | 10 (≈ 16.6 µM) | > 50 | IC90 (Septoria tritici (St); [5]): > 50 µg/mL; IC90 (Septoria tritici (St); [6]): > 50 µg/mL
COCCO[C@@H](Cn1c(=O)n([C@H](C)C(=O)N2CCCC2)c(=O)c2c(C)c(-n3nccn3)sc21)c1cc(F)ccc1OC [Compound I-65, 1-((R)-2-(5-fluoro-2-methoxyphenyl)-2-(2-methoxy-ethoxy)ethyl)-5-methyl-3-((R)-1-oxo-1-(pyrrolidin-1-yl)propan-2-yl)-6-(2H-1,2,3-triazol-2-yl)thieno[2,3-d]pyrimidine-2,4(1H,3H)-dione] | 2 (≈ 3.33 µM) | 2 (≈ 3.33 µM) | 0.4 (≈ 0.666 µM) | 0.4 (≈ 0.666 µM) | 2.1 to 4 (≈ 3.5 to 6.66 µM) | 1.01 to 2 (≈ 1.68 to 3.33 µM) | 2.1 to 4 (≈ 3.5 to 6.66 µM) | 2.01 to 4 (≈ 3.35 to 6.66 µM) | 0.4 to 1 | 0.3 to 1 | 0.4 (≈ 0.666 µM) | 0.4 (≈ 0.666 µM) | 2.1 to 4 (≈ 3.5 to 6.66 µM) | 2.01 to 4 (≈ 3.35 to 6.66 µM) | > 50 | > 50 | 10 (≈ 16.6 µM) | > 50 | 10 (≈ 16.6 µM) | > 50 | IC90 (Septoria tritici (St); [5]): > 50 µg/mL; IC90 (Septoria tritici (St); [6]): > 50 µg/mL
